Source: patent US20120142656A1, “BUCCAL APPLICATION SYSTEM COMPRISING 17A-ESTRADIOL” (BAYER PHARMA AKTIENGESELLSCHAFT, priority 2009, published 2012)

Tests used:
Type in all cases: in vivo
[1] = tested on: postmenopausal or ovarectomized women; test: endometrial thickness by transvaginal ultrasound in clinical study; conditions: 0.4 mg buccal tablet
Description: Hot flashes were recorded before the beginning of treatment and on one of the last 3 days of treatment week 4. This was carried out according to subjective criteria (number and severity of the events) using patient diaries and objectively by continuous measurement of the skin temperature. In addition, the measurement of the endometrial thickness was carried out by transvaginal ultrasound investigations.

[2] = tested on: postmenopausal or ovarectomized women; test: double-blind, randomized crossover clinical study: hot flashes (patient diaries, skin temperature); conditions: 0.4 mg buccal tablet
Description: (§1) Hot flashes were recorded before the beginning of treatment and on one of the last 3 days of treatment week 4. This was carried out according to subjective criteria (number and severity of the events) using patient diaries and objectively by continuous measurement of the skin temperature.

[3] = tested on: postmenopausal or ovarectomized women; test: tolerability: monitoring of undesired events and laboratory investigations in clinical study; conditions: 0.4 mg buccal tablet, versus placebo group
Description: as §1, with “temperature. Moreover, the tolerability of the treatment regime was determined by monitoring of undesired events and standardized laboratory investigations.” for “temperature.”

## C[C@]12CC[C@@H]3c4ccc(O)cc4CC[C@H]3[C@@H]1CC[C@H]2O [17α-estradiol]
[1]
  endometrial thickness measured by transvaginal ultrasound: not significantly altered
[2]; after treatment for 4 weeks, before treatment 11.9±2.1, patient diaries
  number of hot flashes per 24 h: 3.1±1.8 per 24 h
[2]; drug group versus placebo
  effect on number and intensity of hot flashes: rapid reduction of the number and intensity of hot flashes
[3]
  side-effect profile: comparable
